Assay results published in US9018371B2, “Adenosine derivatives, method for the synthesis thereof, and the pharmaceutical compositions for the prevention and treatment of the inflammatory diseases containing the same as an active ingredient” (FM Therapeutics Co., Ltd., priority 2007, dated 2015).

How the values were obtained:
[1] = biological target: human A3 adenosine receptor (hA3 AR) (Homo sapiens (Human), UniProt P0DMS8); experiment: Binding affinity for human A3 adenosine receptor ([125I]AB-MECA, CHO cells); conditions: for Ki: nM ± SEM, [125I]AB-MECA, CHO cells
[2] = test system: TPA-induced inflammation of the mouse ear; experiment: Anti-inflammatory activity, TPA-induced mouse ear inflammation; assay type: in vivo, ICR mice; conditions: TPA-treated ear; for anti-inflammatory activity relative to Examples 2 to 4, on the basis of inhibition percentage: 0.5% in acetone, ICR mice (FIG. 3); for percentage of inflammation inhibition: ICR mice, 24 hrs after TPA
Protocol: The adenosine derivatives of the present invention were examined for anti-inflammatory activity in the following animal test. Seven-week-old male ICR mice were treated with TPA (12-O-tetradecanoylphorbol 13-acetate, 20 μl) in the right ear. […] Hydrocortisone was used at the same concentration as a control.
6 hrs after treatment with TPA, the mice were secondarily treated with the adenosine derivatives of the present invention. 24 hrs after TPA treatment, test animals were euthanized using a cervical dislocation method. Samples were obtained from the right ear using a 6 mm diameter punch. The activity was observed by measuring the ear sample using a microbalance. Percentages of inhibition were calculated using the following Equation 1. The compositions and amounts used in these experiments are summarized in Tables 2 to 5 and the anti-inflammatory activities thereof are shown in FIGS. 2 to 5.

[3] = Toxicity assay in animals (abdominal administration, 24 hrs observation); conditions: 20 mg/kg, 10 mg/kg and 1 mg/kg abdominally, observation for 24 hrs
[4] = biological target: human A2B adenosine receptor (Homo sapiens (Human), UniProt P29275); experiment: Agonist or antagonist activity on human A2B adenosine receptor
[5] = biological target: human A3 adenosine receptor (Homo sapiens (Human), UniProt P0DMS8); experiment: Antagonism of Cl-IB-MECA and cAMP inhibition in CHO cells expressing human A3 adenosine receptor; assay type: cell-based; conditions: various concentrations
[6] = biological target: human A2A adenosine receptor (hA2A) (Homo sapiens (Human), UniProt P29274); experiment: Binding affinity for human A2A adenosine receptor ([3H]CGS-21680, HEK 293 cell); conditions: nM ± SEM
[7] = biological target: human A1 adenosine receptor (hA1) (Homo sapiens (Human), UniProt P30542); experiment: Binding affinity for human A1 adenosine receptor ([3H]CCPA, CHO cells); conditions: nM ± SEM
[8] = biological target: rat A3 adenosine receptor (Rattus norvegicus (Rat), UniProt P28647); experiment: Binding affinity for rat A3 adenosine receptor expressed in CHO cells
[9] = 0.5% in distilled water:acetone (1:4)

Sequence of human A2A adenosine receptor (hA2A) (P29274 whole entry): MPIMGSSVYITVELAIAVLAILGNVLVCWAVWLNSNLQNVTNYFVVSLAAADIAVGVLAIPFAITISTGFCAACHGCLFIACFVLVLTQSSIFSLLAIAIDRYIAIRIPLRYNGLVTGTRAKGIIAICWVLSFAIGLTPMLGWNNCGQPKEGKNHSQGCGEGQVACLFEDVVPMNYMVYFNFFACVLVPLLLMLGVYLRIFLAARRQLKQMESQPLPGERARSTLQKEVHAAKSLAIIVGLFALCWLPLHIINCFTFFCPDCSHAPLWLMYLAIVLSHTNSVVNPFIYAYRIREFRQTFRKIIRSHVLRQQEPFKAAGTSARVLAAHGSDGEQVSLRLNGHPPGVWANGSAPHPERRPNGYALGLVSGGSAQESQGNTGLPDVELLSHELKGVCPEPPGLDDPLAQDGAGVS
Sequence of human A3 adenosine receptor (hA3 AR) (P0DMS8 whole entry): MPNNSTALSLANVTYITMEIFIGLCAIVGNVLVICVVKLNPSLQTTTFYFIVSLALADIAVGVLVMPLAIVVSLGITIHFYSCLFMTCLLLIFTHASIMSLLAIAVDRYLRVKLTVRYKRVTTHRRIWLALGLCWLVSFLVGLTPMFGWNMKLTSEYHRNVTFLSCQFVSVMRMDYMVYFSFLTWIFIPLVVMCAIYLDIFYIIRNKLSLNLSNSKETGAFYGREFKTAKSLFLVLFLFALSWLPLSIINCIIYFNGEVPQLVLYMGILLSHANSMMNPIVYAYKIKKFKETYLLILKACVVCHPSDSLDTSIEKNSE
Sequence of human A1 adenosine receptor (hA1) (P30542 whole entry): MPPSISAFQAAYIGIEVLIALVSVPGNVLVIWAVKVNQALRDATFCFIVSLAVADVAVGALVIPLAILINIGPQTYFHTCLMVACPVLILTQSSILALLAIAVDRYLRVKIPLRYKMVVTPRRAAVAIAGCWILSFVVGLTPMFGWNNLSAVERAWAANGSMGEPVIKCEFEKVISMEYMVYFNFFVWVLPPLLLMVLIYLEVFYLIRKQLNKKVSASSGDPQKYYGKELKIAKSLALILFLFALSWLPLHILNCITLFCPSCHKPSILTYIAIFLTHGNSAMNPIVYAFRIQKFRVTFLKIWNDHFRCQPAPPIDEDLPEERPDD
Sequence of human A2B adenosine receptor (P29275 whole entry): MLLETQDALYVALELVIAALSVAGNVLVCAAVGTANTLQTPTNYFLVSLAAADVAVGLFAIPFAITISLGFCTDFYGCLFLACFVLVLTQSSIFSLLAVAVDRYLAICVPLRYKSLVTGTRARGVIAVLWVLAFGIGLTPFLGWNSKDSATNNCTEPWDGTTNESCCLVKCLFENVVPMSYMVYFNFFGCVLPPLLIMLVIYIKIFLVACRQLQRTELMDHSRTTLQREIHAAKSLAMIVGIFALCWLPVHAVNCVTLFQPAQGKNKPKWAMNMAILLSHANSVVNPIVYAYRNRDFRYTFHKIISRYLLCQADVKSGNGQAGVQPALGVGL
Sequence of human A3 adenosine receptor (P0DMS8 whole entry): as the sequence (P0DMS8 whole entry) above
Sequence of rat A3 adenosine receptor (P28647 whole entry): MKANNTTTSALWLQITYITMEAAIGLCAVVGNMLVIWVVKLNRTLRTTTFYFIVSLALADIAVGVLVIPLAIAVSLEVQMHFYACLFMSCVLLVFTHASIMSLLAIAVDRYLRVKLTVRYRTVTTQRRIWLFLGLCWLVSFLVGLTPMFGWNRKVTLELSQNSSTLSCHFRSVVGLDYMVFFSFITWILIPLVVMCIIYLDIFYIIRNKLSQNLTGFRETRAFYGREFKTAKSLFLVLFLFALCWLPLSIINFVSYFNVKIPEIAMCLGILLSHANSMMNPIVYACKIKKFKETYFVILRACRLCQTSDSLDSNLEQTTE

Ki [1] [nM]	melting point	Structure (SMILES)	further results
7.4 ± 1.3	183.2 to 183.5 °C	OC1CS[C@@H](n2cnc3c(NCc4cccc(F)c4)nc(Cl)nc32)C1O (stereo in doubt) [Example 1, (2R,3R,4S)-2-(2-Chloro-6-(3-fluorobenzylamino)-9H-purin-9-yl)tetrahydrothiophen-3,4-diol]	anti-inflammatory activity relative to Examples 2 to 4, on the basis of inhibition percentage [2]: four or more times that of the compounds of Examples 2 to 4
		OC1CS[C@@H](n2cnc3c(NCc4cccc(Cl)c4)nc(Cl)nc32)C1O (stereo in doubt) [Example 2, (2R,3R,4S)-2-(2-Chloro-6-(3-chlorobenzylamino)-9H-purin-9-yl)tetrahydrothiophen-3,4-diol]	mortality [3]: None of the members of the three groups died; weight gain or feed intake versus control group [3]: No difference in weight gain or feed intake
8.99 ± 5.17	184 to 185 °C	OC1CS[C@@H](n2cnc3c(NCc4cccc(Br)c4)nc(Cl)nc32)C1O (stereo in doubt) [Example 3, (2R,3R,4S)-2-(2-Chloro-6-(3-bromobenzylamino)-9H-purin-9-yl)tetrahydrothiophen-3,4-diol]	
		OC1CS[C@@H](n2cnc3c(NCc4cccc(I)c4)nc(Cl)nc32)C1O (stereo in doubt) [Example 4, (2R,3R,4S)-2-(2-Chloro-6-(3-iodobenzylamino)-9H-purin-9-yl)tetrahydrothiophen-3,4-diol]	agonist or antagonist on human A2B adenosine receptor (in words) [4]: not observed as an agonist or antagonist; inhibition of the agonist effect of Cl-IB-MECA (in words) [5]: inhibited in a dose-dependent manner
25.8 ± 6.3	198.7 to 199.7 °C	OC1CS[C@@H](n2cnc3c(NCc4ccccc4Cl)nc(Cl)nc32)C1O (stereo in doubt) [Example 5, (2R,3R,4S)-2-(2-Chloro-6-(2-chlorobenzylamino)-9H-purin-9-yl)tetrahydrothiophen-3,4-diol]	Ki [6]: 1600 ± 135 nM; percentage of inflammation inhibition [2, 9]: 17%
12.7 ± 3.7	188.8 to 189.8 °C	COc1ccc(Cl)cc1CNc1nc(Cl)nc2c1ncn2[C@@H]1SCC(O)C1O (stereo in doubt) [Example 6, (2R,3R,4S)-2-(2-Chloro-6-(5-chloro-2-methoxybenzylamino)-9H-purin-9-yl)tetrahydrothiophen-3,4-diol]	Ki [6]: 4020 ± 1750 nM; anti-inflammatory activity relative to Examples 2 to 4, on the basis of inhibition percentage [2]: four or more times that of the compounds of Examples 2 to 4
	188 °C	COc1ccccc1CNc1nc(Cl)nc2c1ncn2[C@@H]1SCC(O)C1O (stereo in doubt) [Example 7, (2R,3R,4S)-2-(2-chloro-6-(2-methoxybenzylamino)-9H-purin-9-yl)tetrahydrothiophen-3,4-diol]	percentage of inflammation inhibition [2, 9]: 34%
24.8 ± 8.1	226.3 °C (dec.)	OC1CS[C@@H](n2cnc3c(NCc4cccc5ccccc45)nc(Cl)nc32)C1O (stereo in doubt) [Example 8, (2R,3R,4S)-2-(2-Chloro-6-(naphthalen-1-ylmethylamino)-9H-purin-9-yl)tetrahydrothiophen-3,4-diol]	percentage of inflammation inhibition [2, 9]: 53%
	254 to 256.99 °C	O=C(O)c1cccc(CNc2nc(Cl)nc3c2ncn3[C@@H]2SCC(O)C2O)c1 (stereo in doubt) [Example 9, 3-((2-chloro-9-((2R,3R,4S)-3,4-dihydroxytetrahydrothiophen-2-yl)-9H-purine-6-ylamino)methyl)benzoic acid]	
7.3 ± 0.6		OC1CS[C@@H](n2cnc3c(NCc4cccc(F)c4)ncnc32)C1O (stereo in doubt) [Example 11, (2R,3R,4S)-2-(6-(3-fluorobenzylamino)-9H-purin-9-yl)tetrahydrothiophen-3,4-diol]	Ki [6]: 1260 ± 330 nM; Ki [7]: 1430 ± 420 nM
1.5 ± 0.4		OC1CS[C@@H](n2cnc3c(NCc4cccc(Cl)c4)ncnc32)C1O (stereo in doubt) [Example 12, (2R,3R,4S)-2-(6-(3-Chlorobenzylamino)-9H-purin-9-yl)tetrahydrothiophen-3,4-diol]	Ki [6]: 440 ± 110 nM; Ki [7]: 860 ± 210 nM
6.8 ± 3.4	183 to 184 °C	OC1CS[C@@H](n2cnc3c(NCc4cccc(Br)c4)ncnc32)C1O (stereo in doubt) [Example 13, (2R,3R,4S)-2-(6-(3-bromobenzylamino)-9H-purin-9-yl)tetrahydrothiophen-3,4-diol]	Ki [6]: 420 ± 32 nM; Ki [7]: 790 ± 190 nM
	198.8 to 199.8 °C	OC1CS[C@@H](n2cnc3c(NCc4cccc(I)c4)ncnc32)C1O (stereo in doubt) [Example 14, (2R,3R,4S)-2-(6-(3-Iodobenzylamino)-9H-purin-9-yl)tetrahydrothiophen-3,4-diol]	
13 ± 6.9	181.5 to 181.7 °C	OC1CO[C@@H](n2cnc3c(NCc4cccc(Br)c4)nc(Cl)nc32)C1O (stereo in doubt) [Example 15, (2R,3R,4R)-2-(6-(3-Bromobenzylamino)-2-chloro-9H-purin-9-yl)tetrahydrofuran-3,4-diol]	binding affinity for hA3 AR (in words) [1]: high binding affinity and selectivity; percentage of inflammation inhibition ([2]; 0.5% in DMSO:acetone (1:9)): 59%
		O[C@@H]1[C@H](O)CS[C@H]1n1cnc2c(NCc3cccc(I)c3)nc(Cl)nc21 [Example 4, (2R,3R,4S)-2-(2-Chloro-6-(3-iodobenzylamino)-9H-purin-9-yl)tetrahydrothiophen-3,4-diol]	Ki [8]: 3.89 ± 1.15 nM
3.69 ± 0.25		CNc1nc(Cl)nc2c1ncn2[C@@H]1SC[C@H](O)[C@@H]1O [Example 10, 2-(2-Chloro-6-methylamino-purin-9-yl)(2R,3S,4R)-tetrahydrothiophen-3,4-diol]	
42.9 ± 8.9	195.5 to 195.8 °C	OC1CO[C@@H](n2cnc3c(NCc4cccc(I)c4)nc(Cl)nc32)[C@H]1O (stereo partly drawn) [Example 16, (2R,3R,4R)-2-(6-(3-iodobenzylamino)-2-chloro-9H-purin-9-yl)tetrahydrofuro-3,4-diol]	binding affinity for hA3 AR (in words) [1]: high binding affinity and selectivity; percentage of inflammation inhibition ([2]; 0.5% in DMSO:acetone (1:9)): 79%
